{"source": "patent US9695200B2", "about": "“Heterocyclic ITK inhibitors for treating inflammation and cancer” (Confluence Life Sciences, Inc., priority 2015, dated 2017)", "key": {"[1]": {"test_system": "phospho-PLCγ1 in Jurkat cells", "assay": "ITK target modulation PLC-γ assay (phospho-PLCγ1, αCD3-stimulated Jurkat cells)", "format": "cell-based, human", "settings": "1 hour compound incubation, αCD3 Dynabeads stimulation 8 minutes, MSD phospho-PLCγ1, read-out: PLC-γ Inhibition IC50"}, "ITK": {"target": "ITK (Homo sapiens (Human), UniProt Q08881)", "sequence (Q08881 whole entry)": "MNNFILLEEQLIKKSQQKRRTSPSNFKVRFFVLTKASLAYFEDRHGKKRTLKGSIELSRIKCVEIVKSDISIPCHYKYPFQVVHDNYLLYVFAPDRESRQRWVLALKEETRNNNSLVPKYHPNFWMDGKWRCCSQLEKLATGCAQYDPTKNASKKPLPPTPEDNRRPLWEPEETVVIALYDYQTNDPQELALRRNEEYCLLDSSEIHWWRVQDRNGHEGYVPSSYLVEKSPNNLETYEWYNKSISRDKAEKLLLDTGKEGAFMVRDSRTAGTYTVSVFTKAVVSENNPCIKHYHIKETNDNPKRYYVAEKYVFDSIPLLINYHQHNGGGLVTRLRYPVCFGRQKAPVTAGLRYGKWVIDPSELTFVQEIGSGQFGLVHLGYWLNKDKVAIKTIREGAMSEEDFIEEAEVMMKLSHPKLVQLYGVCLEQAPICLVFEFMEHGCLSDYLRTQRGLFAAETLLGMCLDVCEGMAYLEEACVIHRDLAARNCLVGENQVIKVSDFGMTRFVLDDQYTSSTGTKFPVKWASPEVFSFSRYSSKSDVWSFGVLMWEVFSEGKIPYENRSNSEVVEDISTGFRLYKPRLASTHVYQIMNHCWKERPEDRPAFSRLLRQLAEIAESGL", "assay": "ITK inhibitor binding potency (LanthaScreen competitive binding assay)", "settings": "TR-FRET tracer-236 displacement, 10 nM ITK; pre-incubation condition not given; read-out: ITK Inhibition IC50", "text": "The ability of candidate compounds to interact with ITK is quantitated by a competitive binding assay using the LanthaScreen technology developed by Life Technologies. This assay is based on the binding of a proprietary, Alexa Fluor® 647-labeled, ATP-competitive kinase inhibitor (kinase tracer-236) to the ITK expression construct in the presence of a Europium-conjugated antibody, resulting in a FRET (fluorescence resonance energy transfer) signal. Displacement of the kinase tracer by compound results in a lower emission ratio upon excitation of the Europium chelate. Candidate compounds are designed as potential irreversible inhibitors of ITK, capable of ligating to an active site cysteine residue resulting in time dependent covalent binding. The time dependent nature of irreversible inhibition is investigated by performing the binding assay with and without a pre-incubation of compound and ITK. […] The inhibitory potency of candidate compounds is measured in 20 mM HEPES pH 7.5, 10 mM MgCl2, 0.01% BSA, 0.0005% Tween-20, and 2% DMSO in the presence of 10 nM ITK, 2 nM Eu-anti-GST antibody, and 50 nM kinase tracer-236 using a 384-well plate format. Background signal is defined in the absence of ITK and uninhibited signal is defined in the presence of vehicle (2% DMSO) alone. Compounds were evaluated in an 11 point dose-response ranging from 20 uM to 0.34 nM. The binding assays are performed under two preincubation conditions to evaluate time dependence of inhibition. For the pre-incubation assay, ITK and Eu-anti-GST antibody are pre-incubated with compound or vehicle for two hours prior to the addition of kinase tracer. The non-preincubated assay is run under conditions where ITK and Eu-anti-GST antibody are added to a mixture of compound and kinase tracer. IC50 values of compounds are determined using a 4 parameter logistical fit of emission ratio as a function of the concentration of compound."}}, "note": "Like-named read-outs stand apart in the source and are kept apart here."}
{"molecule": "C=CC(=O)Nc1cccc(-c2cnc3[nH]cc(-c4cn(C)c(=O)c5ccccc45)c3c2)c1", "note": "[Example 72, N-(3-(3-(2-methyl-1-oxo-1,2-dihydroisoquino-lin-4-yl)-1H-pyrrolo[2,3-b]pyridin-5-yl)phenyl)acryl-amide]", "values": [{"measurement": "IC50", "setting": "[1]; Homo sapiens", "result": "< 1", "unit": "µM"}, {"measurement": "IC50", "setting": "ITK", "result": "≤ 1000", "unit": "nM"}]}
{"molecule": "C=CC(=O)Nc1cccc(-c2cnc3[nH]cc(-c4ccc(C(=O)Nc5ccc(C(C)C)cc5)cc4)c3c2)c1", "note": "[Example 74, 4-(5-(3-acrylamidophen-yl)-1H-pyrrolo[2,3-b]pyridin-3-yl)-N-(4-isopropylphenyl) benzamide]", "values": [{"measurement": "IC50", "setting": "[1]; Homo sapiens", "result": "< 1", "unit": "µM"}, {"measurement": "IC50", "setting": "ITK", "result": "≤ 1000", "unit": "nM"}]}
{"molecule": "COc1cc(NC(=O)/C=C/CN(C)C)cc(-c2cnc3[nH]cc(-c4ccnc(OC)c4)c3c2)c1", "note": "[Example 76, (E)-4-(dimethylamino)-N-(3-methoxy-5-(3-(2-methoxypyridin-4-yl)-1H-pyrrolo[2,3-b]pyridin-5-yl)phenyl)but-2-enamide]", "values": [{"measurement": "IC50", "setting": "[1]; Homo sapiens", "result": "< 1", "unit": "µM"}, {"measurement": "IC50", "setting": "ITK", "result": "≤ 1000", "unit": "nM"}]}
{"molecule": "CN(C)C/C=C/C(=O)Nc1cccc(-c2cnc3[nH]cc(-c4cccc(C#N)c4)c3c2)c1", "note": "[Example 78, (E)-N-(3-(3-(3-cyanophenyl)-1H-pyrrolo[2,3-b]pyridin-5-yl)phenyl)-4-(dimethylamino) but-2-enamide]", "values": [{"measurement": "IC50", "setting": "[1]; Homo sapiens", "result": "> 5", "unit": "µM"}, {"measurement": "IC50", "setting": "ITK", "result": "≤ 1000", "unit": "nM"}]}
{"molecule": "C=C(C)C(=O)Nc1cccc(-c2cnc3[nH]cc(-c4ccnc(OC)c4)c3c2)c1", "note": "[Example 81, N-(3-(3-(2-methoxypyridin-4-yl)-1H-pyrrolo[2,3-b]pyridin-5-yl)phenyl)meth-acrylamide]", "values": [{"measurement": "IC50", "setting": "[1]; Homo sapiens", "result": "> 5", "unit": "µM"}, {"measurement": "IC50", "setting": "ITK", "result": "> 1000", "unit": "nM"}]}
{"molecule": "CN(C)C/C=C/C(=O)Nc1cccc(-c2cnc3[nH]cc(-c4cccnc4)c3c2)c1", "note": "[Example 84, (E)-4-(dimethylamino)-N-(3-(3-(pyridin-3-yl)-1H-pyrrolo[2,3-b]pyridin-5-yl)phenyl)but-2-enamide]", "values": [{"measurement": "IC50", "setting": "[1]; Homo sapiens", "result": "1 to 5", "unit": "µM"}, {"measurement": "IC50", "setting": "ITK", "result": "≤ 1000", "unit": "nM"}]}
{"molecule": "C=C(C)C(=O)Nc1cccc(-c2cnc3[nH]cc(-c4cccnc4)c3c2)c1", "note": "[Example 85, N-(3-(3-(pyridin-3-yl)-1H-pyrrolo[2,3-b]pyridin-5-yl)phenyl)meth-acrylamide]", "values": [{"measurement": "IC50", "setting": "[1]; Homo sapiens", "result": "> 5", "unit": "µM"}, {"measurement": "IC50", "setting": "ITK", "result": "≤ 1000", "unit": "nM"}]}
{"molecule": "C=CC(=O)Nc1cccc(-c2cnc3[nH]cc(-c4cn(CC5CC5)c(=O)c5ccccc45)c3c2)c1", "note": "[Example 86, N-(3-(3-(2-(cyclopropyl-methyl)-1-oxo-1,2-dihydroisoquino-lin-4-yl)-1H-pyrrolo[2,3-b]pyridin-5-yl)phenyl)acryl-amide]", "values": [{"measurement": "IC50", "setting": "[1]; Homo sapiens", "result": "> 5", "unit": "µM"}, {"measurement": "IC50", "setting": "ITK", "result": "> 1000", "unit": "nM"}]}
{"molecule": "COc1cc(-c2c[nH]c3ncc(-c4cccc(NC(=O)/C(C#N)=C/C(C)C)c4)cc23)ccn1", "note": "[Example 87, (E)-2-cyano-N-(3-(3-(2-methoxypyridin-4-yl)-1H-pyrrolo[2,3-b]pyridin-5-yl)phenyl)-4-methylpent-2-enamide]", "values": [{"measurement": "IC50", "setting": "[1]; Homo sapiens", "result": "> 5", "unit": "µM"}, {"measurement": "IC50", "setting": "ITK", "result": "≤ 1000", "unit": "nM"}]}
{"molecule": "CN(C)C/C=C/C(=O)Nc1cccc(-c2cnc3[nH]cc(-c4ccnc5[nH]ccc45)c3c2)c1", "note": "[Example 89, (E)-N-(3-(1H,1′H-[3,4′-bipyrrolo[2,3-b]pyridin]-5-yl)phenyl)-4-(dimethylamino) but-2-enamide]", "values": [{"measurement": "IC50", "setting": "[1]; Homo sapiens", "result": "< 1", "unit": "µM"}, {"measurement": "IC50", "setting": "ITK", "result": "≤ 1000", "unit": "nM"}]}
{"molecule": "CN(C)C/C=C/C(=O)Nc1cccc(-c2cnc3[nH]cc(-c4ccc(=O)n(CC5CC5)c4)c3c2)c1", "note": "[Example 90, (E)-N-(3-(3-(1-(cyclopropyl-methyl)-6-oxo-1,6-dihydropyridin-3-yl)-1H-pyrrolo[2,3-b]pyridin-5-yl)phenyl)-4-(dimethylamino) but-2-enamide]", "values": [{"measurement": "IC50", "setting": "[1]; Homo sapiens", "result": "> 5", "unit": "µM"}, {"measurement": "IC50", "setting": "ITK", "result": "≤ 1000", "unit": "nM"}]}
{"molecule": "N-(6-methoxy- 4-(3-(2- methoxypyridin- 4-yl)-1H- pyrrolo[2,3- b]pyridin-5- yl)pyridin-2- yl)methacryl- amide [Example 68]", "values": [{"measurement": "IC50", "setting": "[1]", "result": "> 5", "unit": "µM"}, {"measurement": "IC50", "setting": "ITK", "result": "> 1000", "unit": "nM"}]}
